Measured values taken from US20250152557A1, “METHODS FOR TREATING SUBJECTS WITH ABDOMINAL OBESITY […] AND/OR IMPAIRED GLUCOSE” (NOVO NORDISK A/S, priority 2022, published 2025).

Columns and labels:
[1] = test system: subjects with metabolic syndrome; assay: Phase 1b study, pharmacodynamic effects of INV-202 over 28 days (weight, waist, lipids, glucose, endocrine and renal markers); type: in vivo, human
Method: A phase 1b study to examine the pharmacokinetic and pharmacodynamic effects of INV-202 in subjects with metabolic syndrome as defined by hypertriglyceridemia, abdominal obesity, and impaired glucose tolerance over 28 days was performed.
This is single center, Phase 1B, randomized, double-blind, placebo-controlled, 28-day repeat dose study.
The study includes subjects with evidence of metabolic syndrome and glucose intolerance that are randomized 1:1 to receive either INV-202 or placebo. 20 subjects will receive 25 mg of INV-202 and 20 subjects will receive a matching placebo daily for 28 consecutive days, for a total of 40 subjects.
Subjects will receive a daily oral dose of INV-202 25 mg or a matching placebo for 28 consecutive days.
Body measurements performed at screening will include height and weight measurements, waist circumference, as well as BMI calculation. Height will only be measured at screening. Weight and waist circumference will also be measured pre-dose on Days 1, 8, 15, and 22, and on Day 29 (+2 days). BMI will be calculated as needed.
Weight and waist circumference will be measured in triplicate using a standard measuring method. The same scale should be used at all visits for a given subject. The scale should be calibrated according to the manufacturer's recommendation. A medical grade scale for weight should be used.
(§1) The following will be assessed: sodium, potassium, chloride, glucose, blood urea nitrogen, creatinine, creatinine clearance, direct bilirubin, indirect bilirubin, bilirubin total, ALP, AST, ALT, albumin, lactate dehydrogenase, calcium, lipase, amylase, phosphorus, HbA1C, serum ferritin and total protein.
In addition, a lipid profile will also be assessed: total cholesterol, HDL, LDL, VLDL and triglycerides. […]
The following will be assessed only pre-dose on Days 1, 8, 15, and 22, on Day 29 (+2 days), and at the FU Visit/EOS/ET on Day 35 (+2 days): C-peptide, insulin, TSH, and T4.
The OGTT will be performed at screening, on Day −1, and on Day 29 (+2 days). The OGTT will not need to be performed at screening if there is evidence of HbA1C≥5.7% but ≤6.4% obtained within the last 3 months.
For the OGTT performed on Day 29 (+2 days), a 75 g glucose load will be administered with blood draws at 30 minutes, 1 hour, 2 hours and 3 hours post-intake.
The following PD parameters will be evaluated: • 1) 0-3 hour AUC blood glucose level during OGTT • 2) Plasma insulin level—change from baseline to EOS/ET • 3) C-peptide level—change from baseline to EOS/ET • 4) Plasma lipid profile (HDL, LDL, VLDL, triglycerides)—change from baseline to EOS/ET • 5) Adiponectin and leptin—change from baseline to EOS/ET • 6) hs-CRP—change from baseline to EOS/ET • 7) Weight—change from baseline to EOS/ET • 8) Waist circumference—change from baseline to EOT/ET • 9) Appetite and Food Intake questionnaire score—change from baseline to EOT/ET • 10) Urine albumin to creatinine ratio—change from baseline to EOS/ET
All PD analyses will be descriptive only and no formal statistical analysis is planned. Descriptive statistics will be used to describe change from baseline in values including glucose AUC during OGTT, fasting insulin level and C-peptide levels, lipids (e.g., triglycerides, HDL), adiponectin and other biomarkers. Exploratory analysis in PD versus AEs may be performed to evaluate the Exposure-Response.

[2] = test system: subjects with metabolic syndrome; assay: Phase 1b study, Columbia Suicidality Severity Rating Scale (C-SSRS); type: in vivo, human; details: INV-202 group, EOT; 25 mg oral daily for 28 days
Text: A suicide risk assessment will be performed using the C-SSRS questionnaire at screening, Day −1 (if more than 21 days have passed since the screening C-SSRS), Day 29 (+2 days) and at the FU Visit/EOS/ET on Day 35 (+2 days).
This scale will be administered by a member of the medical team, completed on site, and will be on paper. The “Lifetime” C-SSRS questionnaire template will be used at the screening visit and on Day −1 (if applicable), and the “since last visit” C-SSRS questionnaire template will be used on Day 29 (+2 days) and at the FU Visit/EOS/ET. If the Investigator determines that a subject is at risk of suicide or self-harm, he/she must immediately be discontinued from the study and appropriate measures to ensure the subject's safety and obtain mental health evaluation must be implemented. The event should be recorded as either an AE or a SAE, as determined by the Investigator, and reported within 24 hours to the Sponsor.

[3] = test system: subjects with metabolic syndrome; assay: Phase 1b study, liver safety (liver chemistry); type: in vivo, human
Text: as §1
The hepatic safety of all randomized subjects will be assessed through the use of the following algorithm based on FDA DILI management guidelines (Center for Drug Evaluation and Research (CDER), FDA. Guidance for Industry: Drug-Induced Liver Injury: Premarketing Clinical Evaluation. July 2009).
An increase of serum ALT or AST>3×ULN should be followed by repeat testing within 48 to 72 hours of all four of the usual serum measures (ALT, AST, ALP, and TBL) to confirm the abnormalities and to determine if they are increasing or decreasing. There also should be inquiry made about symptoms.

[4] = test system: subjects with metabolic syndrome; assay: Phase 1b study, vital signs; type: in vivo, human; details: 25 mg oral daily for 28 days
Text: BP, HR, RR and OT will be measured at screening and pre-dose on Days 1, 8, 15, and 22, on Day 29 (+2 days), and at the FU Visit/EOS/ET on Day 35 (+2 days). Vital signs will be measured in a sitting position (except for safety reasons and when ECG are planned around the same time). When vital signs measurements coincide with a blood draw, they should preferably be performed before the blood collection, whenever possible.

DIO mouse model = assay: Effect on body weight and metabolic parameters in DIO mouse model; type: in vivo
Text: The effect of INV-202 on body weight and food consumption was studied in a DIO mouse model.

[5] = background statement, cited from earlier work
[6] = 25 mg oral daily for 28 days, SD in next cell
[7] = 25 mg oral daily for 28 days, Table 3, SD in next cell
[8] = 25 mg oral daily for 28 days, endocrine lab data, Table 3
[9] = following 28-days of repeat dosing

CC(=O)N/C(N)=N/C(=N\S(=O)(=O)c1ccc(C(F)(F)F)cc1)N1C[C@H](c2ccccc2)C(c2ccc(Cl)cc2)=N1 [INV-202, N-{[(S)-{[3-(4-chlorophenyl)-4-phenyl-4,5-dihydro-1H-pyrazol-1-yl][4-(trifluoromethyl)benzenesulfonamido]methylidene}amino]methanimidoyl}acetamide]
BMI, change from baseline ([1]; 25 mg oral daily for 28 days): −1.20 kg/m^2 | HDL (%), change from baseline ([1]; 25 mg oral daily for 28 days): 0.13% | Triglycerides (%), change from baseline ([1]; 25 mg oral daily for 28 days): −7.9% | OGTT (0-3 hour AUC blood glucose), change from baseline ([1]; 25 mg oral daily for 28 days, 75 g glucose load, SD in next cell): 2.24 mmol·h/L | C-peptide, change from baseline [1, 6]: 0.036 nmol/L | HDL, change from baseline [1, 6]: 0.0015 mmol/L | HgbA1C, change from baseline [1, 6]: −0.005% | Insulin, change from baseline [1, 6]: -5.0 pmol/L | LDL, change from baseline [1, 6]: -0.50 mmol/L | Total Chol., change from baseline [1, 6]: -0.56 mmol/L | Triglycerides, change from baseline [1, 6]: -0.179 mmol/L | VLDL, change from baseline [1, 6]: -0.08 mmol/L | Waist, change from baseline [1, 6]: −1.91 cm | Weight (%), change from baseline [1, 6]: −3.33% | Weight, change from baseline [1, 6]: -3.50 kg | hs-CRP, change from baseline [1, 6]: -1.6 mg/L | Leptin (%) ([1]; 25 mg oral daily for 28 days, Table 3): −18% | Adiponectin [1, 7]: 0.15 mg/L | Leptin [1, 7]: -2.64 µg/L | T4 [1, 8]: 0.516 pmol/L | TSH [1, 8]: −0.014 mIU/L | eGFR (CKD-EPI 2021) ([1]; 25 mg oral daily for 28 days, renal lab data, Table 3): 3.23 mL/min/1.73 m2 | maximum weight loss by percentage ([1]; after 28 days of treatment, individual patient maximum): 6% | lowest weight loss by percentage ([1]; after 28 days of treatment, individual patient minimum): 0.1% | average weight loss at first clinic visit ([1]; day 8, statistically significant): 1.4% | weight change of individual patients ([1]; every single patient on INV-202): lost weight | C-SSRS: Non-specific active suicidal thoughts [2]: 0 | C-SSRS: Suicidal behaviour [2]: 0 | C-SSRS: Wished to be dead [2]: 0 | liver chemistry ([3]; all patients throughout the study): within normal limits | changes for bilirubin (total, direct, indirect) or transaminases (AST and ALT) ([3]; throughout the study): no significant changes | Diastolic Blood Pressure (DBP), change from baseline [4]: −0.25 mmHg | Heart Rate, change from baseline [4]: 2.3 bpm | Systolic Blood Pressure (SBP), change from baseline [4]: −4.65 mmHg | Temp, change from baseline [4]: −0.045 °C | C-peptide levels (DIO mouse model): significant effects in reducing C-peptide levels | glucose AUC in an OGTT test (DIO mouse model): decreased glucose AUC | insulin levels (DIO mouse model): significant effects in reducing | ALT (DIO mouse model; [9]): significantly decreased ALT | liver triglyceride (DIO mouse model; [9]): significantly decreased | body weight (DIO mouse model; following 10 days of dosing): dose dependently reduce body weight

Cc1c(C(=O)NN2CCCCC2)nn(-c2ccc(Cl)cc2Cl)c1-c1ccc(Cl)cc1 [Rimonabant]
efficacy in metabolic syndrome [5]: effective in treating metabolic syndrome | side effects ([5]; resulted in withdrawal from the market): caused neuropsychiatric (i.e. CNS-related) side effects
